Consider one molecule from patent US20240058453A1 (priority 2022, published 2024).

The subject of this test is bacteria. Type of test: cell-based.

With `NC[C@H]1O[C@H](O[C@H]2[C@H](O)[C@@H](O[C@H]3O[C@H](CO)[C@@H](O)[C@H](N)[C@H]3O)[C@H](N)C[C@@H]2N)[C@H](N)C[C@@H]1O` [tobramycin], the bacteria killing activity entry is reported as “comparable activity”.
